Measured values taken from ChEMBL document CHEMBL1201862, “PubChem BioAssay data set” (2004).
Calls of active or inactive are those of the source. Cut-off read from the data, not from the text of the source, for most assays here: actives have a measured EC50 and inactives only a lower limit.

Key:
[1] = target: T1, Heat shock factor protein 1 (Mus musculus, UniProt P38532); experiment: inhibition of MG132-induced HSE-luciferase signal, confirmation, cell-based, NIH3T3, luminescence, dose retest (AID 2382); assay type: functional;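 note: NIH3T3 fibroblasts with HSF1-driven luciferase reporter stressed by proteasome inhibitor MG132; luminescence from HSF1-driven luciferase expression after 8 hours of MG132 stress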
T1 sequence (P38532 whole entry): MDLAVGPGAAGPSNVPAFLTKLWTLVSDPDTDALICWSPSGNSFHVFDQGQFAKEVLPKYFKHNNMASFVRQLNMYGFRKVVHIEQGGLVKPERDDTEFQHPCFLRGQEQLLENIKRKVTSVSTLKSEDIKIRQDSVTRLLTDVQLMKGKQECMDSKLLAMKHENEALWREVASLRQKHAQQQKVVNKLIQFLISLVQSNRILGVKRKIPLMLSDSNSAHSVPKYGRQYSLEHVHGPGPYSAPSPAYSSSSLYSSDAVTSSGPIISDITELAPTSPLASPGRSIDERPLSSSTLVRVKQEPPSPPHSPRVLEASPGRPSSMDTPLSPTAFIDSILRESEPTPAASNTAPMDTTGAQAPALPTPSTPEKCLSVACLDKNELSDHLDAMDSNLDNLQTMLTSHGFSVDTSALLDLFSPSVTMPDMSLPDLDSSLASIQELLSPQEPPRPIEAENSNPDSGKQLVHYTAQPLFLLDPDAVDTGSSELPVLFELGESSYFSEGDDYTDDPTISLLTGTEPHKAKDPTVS

[2] = HEp-2 cell cytotoxicity, dose response, cytotoxicity control for RSV inhibitor project, HTS (AID 2410); assay type: functional; settings: human respiratory syncytial virus
[3] = inhibitors of intracellular T. cruzi replication, confirmation, NIH3T3 host cells, beta-gal luminescence (AID 2044); assay type: functional, cell-based;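 note: intracellular parasites grown in NIH/3T3 mouse fibroblasts as host cells; luminescent beta-galactosidase reporter signal from transgenic T. cruzi replicating inside host cells; inhibitors lower the luminescence signal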
[4] = cytotoxicity toward NIH3T3 fibroblasts, dose response, counter-screen, cell-based, ATP luminescence, mouse fibroblasts (AID 2010); assay type: functional;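 note: cells exposed to compound for about 90 hours before reading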
[5] = target: FAD-linked sulfhydryl oxidase ALR (Homo sapiens, UniProt P55789); experiment: inhibitors of human ALR sulfhydryl oxidase, dose response, biochemical, H2O2 detection, luminescence, cherry-pick (AID 493248)
Chain of FAD-linked sulfhydryl oxidase ALR (P55789 whole entry): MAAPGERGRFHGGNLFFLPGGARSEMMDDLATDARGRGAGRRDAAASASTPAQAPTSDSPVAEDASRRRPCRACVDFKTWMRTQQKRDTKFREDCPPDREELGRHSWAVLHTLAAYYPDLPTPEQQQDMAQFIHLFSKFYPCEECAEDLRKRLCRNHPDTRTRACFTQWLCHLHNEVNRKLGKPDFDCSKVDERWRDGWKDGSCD

BJ [6] = experiment: cytotoxicity toward BJ-TERT fibroblasts, dose response, cell-based, RAS-independent, luminescence (AID 1933); assay type: functional; settings: Homo sapiens
BJ [7] = experiment: cells; assay type: functional, cell-based; settings: Homo sapiens
BJ [8] = experiment: cytotoxicity toward BJ-TERT-LT-ST fibroblasts, dose response, cell-based, RAS-independent, luminescence (AID 1935); assay type: functional; settings: Homo sapiens;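 note: BJ fibroblasts immortalized with TERT plus LT and ST oncogenes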
[9] = cytotoxicity toward DRD oncogenic fibroblasts, dose response, cell-based, non-viral oncogenic, luminescence (AID 1934); assay type: functional; settings: Homo sapiens
[10] = inhibitors of firefly luciferase expression or activity, dose response, H4 neuroglioma cells, luminescence (AID 1990); assay type: functional, cell-based
[11] = system: Streptococcus sp. 'group A'; experiment: growth inhibition of control SK(-) GAS strain, dose response, counter-screen for streptokinase expression inhibitor project, luminescence, kanamycin, BacTiterGlo, confirmation (AID 1900); assay type: functional, organism-based
[12] = Luminescence Cell-Based Dose Response HTS to Identify Inhibitors of 5'UTR Stem-Loop Driven Prion Protein mRNA Translation in H4 Neuroglioblastoma Cells. [Related pubchem assays: 1827 (Project Summary), 1813 (Primary HTS)]; assay type: functional
[13] = inhibitors of SNCA 5'UTR-driven reporter translation, confirmation, H4 neuroglioma cells, luminescence (AID 1988); assay type: functional, cell-based
Streptokinase A = target: T2, Streptokinase A (Streptococcus pyogenes serotype M1, UniProt P10520); experiment: S. pyogenes streptokinase expression inhibitors, potency, dose response, plasminogen activation absorbance, OD405 (AID 1914); assay type: functional, Streptococcus pyogenes M1 GAS;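 note: secreted streptokinase activity via plasminogen activation per viability signal from cell pellet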
T2 sequence (P10520 whole entry): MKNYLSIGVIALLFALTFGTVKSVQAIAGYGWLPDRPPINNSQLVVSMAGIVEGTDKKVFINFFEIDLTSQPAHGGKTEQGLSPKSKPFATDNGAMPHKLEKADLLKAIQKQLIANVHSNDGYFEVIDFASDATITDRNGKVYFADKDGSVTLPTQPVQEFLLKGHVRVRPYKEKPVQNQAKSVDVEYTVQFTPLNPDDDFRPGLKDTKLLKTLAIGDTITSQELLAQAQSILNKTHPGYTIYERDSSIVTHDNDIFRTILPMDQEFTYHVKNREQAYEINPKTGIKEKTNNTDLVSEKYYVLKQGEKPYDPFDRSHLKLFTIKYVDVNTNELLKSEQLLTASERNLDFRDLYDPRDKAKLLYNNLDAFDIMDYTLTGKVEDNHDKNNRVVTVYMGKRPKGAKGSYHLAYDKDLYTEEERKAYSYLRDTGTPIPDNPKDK

Streptococcus = experiment: Group A Streptococcus viability loss, dose response, counter-screen for streptokinase expression inhibitor project, luminescence, BacTiterGlo (AID 1915); assay type: functional, organism-based;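 note: potency for reduction of bacterial viability or growth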
Cytochrome P450 1A2 = target: T3, Cytochrome P450 1A2 (Homo sapiens, UniProt P05177);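 note: PubChem cytochrome P450 panel assay, CYP1A2 panel member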
T3 sequence (P05177 whole entry): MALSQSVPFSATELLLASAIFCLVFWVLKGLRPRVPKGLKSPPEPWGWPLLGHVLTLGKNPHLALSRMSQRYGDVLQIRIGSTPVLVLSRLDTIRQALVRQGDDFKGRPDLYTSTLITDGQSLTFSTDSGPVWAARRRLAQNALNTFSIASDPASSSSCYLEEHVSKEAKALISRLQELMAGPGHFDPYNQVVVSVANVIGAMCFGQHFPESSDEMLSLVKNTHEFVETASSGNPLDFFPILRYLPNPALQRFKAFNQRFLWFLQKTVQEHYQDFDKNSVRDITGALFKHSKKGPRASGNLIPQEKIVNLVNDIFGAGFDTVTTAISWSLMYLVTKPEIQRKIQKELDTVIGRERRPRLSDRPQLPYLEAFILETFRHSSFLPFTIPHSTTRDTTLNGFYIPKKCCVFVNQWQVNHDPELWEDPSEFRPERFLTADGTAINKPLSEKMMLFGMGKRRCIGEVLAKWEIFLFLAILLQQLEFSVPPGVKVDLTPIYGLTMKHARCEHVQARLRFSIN

[14] = Luminescence Cell-Based Dose Retest to Confirm Inhibitors of Cancer Stem Cells. [Related pubchem assays (depositor defined):AID2717, AID2721]; assay type: functional; settings: Homo sapiens
[15] = Luminescence Cell-Based Dose Confirmation HTS to Identify Activators of 5'UTR Stem-Loop Driven Alpha-Synuclein mRNA Translation in H4 Neuroglioblastoma Cells. [Related pubchem assays: 1829 (Project Summary), 1814 (Primary HTS)]; assay type: functional
[16] = Luminescence Cell-Based Dose Response HTS to Identify Activators of Luciferase Translation or Activity in H4 […] Cells. [Related pubchem assays: 1829 (Project Summary), 1814 (Primary HTS)]; assay type: functional
H4 = experiment: Luminescence Cell-Based Dose Response HTS to Identify Activators of 5'UTR Stem-Loop Driven Prion Protein mRNA Translation in H4 Neuroglioblastoma Cells. [Related pubchem assays: 1829 (Project Summary), 1814 (Primary HTS)]; assay type: functional; settings: Homo sapiens
Large T antigen = Large T antigen (Simian virus 40, UniProt P03070); assay type: functional, Betapolyomavirus macacae;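 note: Confirmatory-stage PubChem screen for compounds that inhibit SV40 T antigen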
Chain of Large T antigen (P03070 whole entry): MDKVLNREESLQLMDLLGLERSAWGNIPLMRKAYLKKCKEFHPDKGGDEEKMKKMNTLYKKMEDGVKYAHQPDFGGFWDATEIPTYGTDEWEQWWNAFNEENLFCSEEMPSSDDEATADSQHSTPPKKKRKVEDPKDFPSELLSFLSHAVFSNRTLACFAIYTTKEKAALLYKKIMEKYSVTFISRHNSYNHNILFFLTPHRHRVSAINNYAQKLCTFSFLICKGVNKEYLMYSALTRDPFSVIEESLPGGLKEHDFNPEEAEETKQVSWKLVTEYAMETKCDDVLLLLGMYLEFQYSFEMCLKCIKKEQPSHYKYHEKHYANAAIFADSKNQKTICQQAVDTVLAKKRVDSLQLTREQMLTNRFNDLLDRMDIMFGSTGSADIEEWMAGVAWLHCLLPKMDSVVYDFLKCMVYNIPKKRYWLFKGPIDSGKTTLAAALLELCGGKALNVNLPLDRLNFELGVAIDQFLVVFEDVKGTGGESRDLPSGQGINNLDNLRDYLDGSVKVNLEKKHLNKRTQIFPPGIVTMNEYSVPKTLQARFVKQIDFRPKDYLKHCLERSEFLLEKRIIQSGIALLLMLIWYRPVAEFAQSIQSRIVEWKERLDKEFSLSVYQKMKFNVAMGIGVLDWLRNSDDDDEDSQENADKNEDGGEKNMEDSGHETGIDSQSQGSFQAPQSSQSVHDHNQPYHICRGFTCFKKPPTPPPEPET

## Cn1cc(CCNC(=O)CC2C(=O)NCCN2Cc2cccc(Oc3ccccc3)c2)cn1 (centres undefined)
[1]
  EC50: > 195 µM (not active)

## CC(=O)N1c2ccc(S(=O)(=O)N3c4ccccc4CC3C)cc2CC1C (centres undefined)
[2]
  CC50: 15.1 µM (active)

## Cc1ccc(CN2CC(C(=O)Nc3ccc(C)cn3)CC2=O)cc1 (centres undefined)
[1]
  EC50: > 195 µM (not active)

## COc1ccc(NCc2ccc(OC)c(Cn3ccnc3)c2)c(OC)c1
[3]
  EC50: 0.588 µM (active)
[4]
  EC50: > 60 µM (not active)
[5]
  AC50: 1.76 µM (active)

## COc1cccc(CNc2ncc(C(=O)Nc3cc(OC)c(OC)c(OC)c3)c(C)n2)c1
BJ [6]
  EC50: > 150 µM (not active)
BJ [7]
  EC50: 46.7 µM (active)
BJ [8]
  EC50: 17.9 µM (inconclusive)
[9]
  EC50: 19.6 µM (inconclusive)

## Cc1ccccc1OCC(=O)NC(=S)Nc1ccc(Br)c(C)n1
[10]
  EC50: 25.1 µM (active)
[11]
  EC50: > 150 µM (not active)
[12]
  EC50: 21 µM (active)
[13]
  EC50: 14.2 µM (active)
Streptokinase A
  EC50: 57.1 µM (active)
Streptococcus
  EC50: > 150 µM (not active)
Cytochrome P450 1A2
  AC50: 3.16 µM (inconclusive)

## CNc1ccccc1C(C)(C)c1cc(-c2cc(C)cc(C)c2)no1
[14]
  AC50: 13.3 µM (active)

## Cc1cc(C(=O)N2CCCC(Nc3ccccc3)C2)c2ccc(F)cc2n1 (centres undefined)
[5]
  AC50: 2.24 µM (active)

## CC(C)C(=O)Nc1ccc2c(c1)nc1n2CCSC1
[5]
  AC50: 0.245 µM (active)

## CN(C)c1ccc(-c2nnc(S)n2-c2ccccc2)cc1
[5]
  AC50: 64.6 µM (active)

## Cc1cc(C(=O)CSc2ccccc2)cc(C)c1O
[2]
  CC50: 49.6 µM (active)

## Fc1cccc(-c2cc3nc4c(c(NCc5ccco5)n3n2)CCCC4)c1
[14]
  AC50: 6.81 µM (active)

## COC(=O)C1=C(c2cc3ccccc3o2)C[C@@H]2CC[C@H]1N2C(=O)N1CCCCC1
[10]
  EC50: > 120 µM (not active)
BJ [6]
  EC50: 4.58 µM (active)
[12]
  EC50: 12.1 µM (active)
[13]
  EC50: 10.5 µM (active)
BJ [7]
  EC50: 28.8 µM (active)
BJ [8]
  EC50: 20.9 µM (active)
[9]
  EC50: 3.8 µM (inconclusive)

## O=Cc1c(N2CCN(c3ccccc3)CC2)nc2ccccn2c1=O
[15]
  EC50: > 120 µM (not active)
[16]
  EC50: 17.8 µM (active)
H4
  EC50: > 120 µM (not active)
[5]
  AC50: 3.72 µM (active)

## O=C(NN=C1CCCCCCCCCCC1)c1ccccc1F
[1]
  EC50: > 195 µM (not active)

## CN(C)c1ccc(CNS(=O)(=O)c2ccc3c(c2)NC(=O)CS3)cc1
[5]
  AC50: 7.37 µM (active)

## COc1cc(SC)ccc1C(=O)N1CCN(c2ccc(O)cc2)CC1
Large T antigen
  IC50: 5.95 µM (active)
[5]
  AC50: 0.68 µM (active)

## Cc1cc2nc(SCCOC(=O)Nc3cccc(Cl)c3)nc(C)c2cc1C
[2]
  CC50: 32.2 µM (active)

## CNc1nnc(-c2cccc(N(C)C)c2)s1
[5]
  AC50: 0.046 µM (active)

## C=CCn1c(SCc2c(C)noc2C)nc2sc3c(c2c1=O)CCC(C)C3 (centres undefined)
BJ [6]
  EC50: 23.8 µM (active)
BJ [7]
  EC50: 4.12 µM (inconclusive)
BJ [8]
  EC50: > 150 µM (inconclusive)
[9]
  EC50: 9.03 µM (active)
